Experimental data taken from US20130281420A1, “Ophthalmic Formulations of Squalamine” (Ohr Pharmaceutical, Inc., priority 2010, published 2013).
Structures can show the parent of a compound that is named as a salt. Where two headings read alike, the source gives them in different places.

Assays:
[1] = Ocular biodistribution study following ocular administration; assay type: in vivo, Dutch-Belted rabbits; details: formulation G, 0.08 mg/eye once; for concentration at 15 min / concentration at 30 min / concentration at 3 h: male, Dutch-Belted, rabbit, posterior sclera and choroid, other: ocular administration, 0.08 mg/eye
Procedure: The objective of this study was to determine the ocular biodistribution of squalamine lactate formulation G (see composition above) when given once by ocular administration to male Dutch-Belted rabbits.
The study design was as follows:
Body weight measurements were taken for randomization/dose calculation purposes. […] Following dose administration, blood samples were collected at specified time points and plasma was prepared. After blood sample collection, the animals were euthanized and a necropsy was performed to collect the following ocular tissues: aqueous humor, vitreous humor, sensory retina and choroid/sclera.

[2] = tested on: human vascular endothelial cells (HUVEC); assay: Inhibition of VEGF induced tube formation by HUVEC; assay type: cell-based; details: 50 nM (tested at 50, 100, 200 nM), 24 hrs, Matrigel with VEGF
Procedure: Squalamine lactate was mixed in solution at 50, 100 or 200 nM concentration with a suspension of human vascular endothelial cells (HUVEC). The suspension was then immediately plated on Matrigel which contained multiple growth factors including vascular endothelial cell growth factor (VEGF). The plates were incubated at 37° C. in an atmosphere of […] for 24 hrs and then the plates were photographed.

AMD = details: cited from earlier work
[3] = any animals (15 min, 30 min, 3 hrs)
[4] = mean of eyes, read-out: Squalamine in posterior sclera and choroid, Mean

CC(C)[C@@H](CC[C@@H](C)[C@H]1CC[C@H]2[C@@H]3[C@H](O)C[C@H]4C[C@@H](NCCCNCCCCN)CC[C@]4(C)[C@H]3CC[C@]12C)OS(=O)(=O)O [Squalamine, ([6-[(3S,5R,7R,10S,13R,145)-3-[3-(4-aminobutylamino)propylamino]-7-hydroxy-10,13-dimethyl-2,3,4,5,6,7,8,9,11,12,14,15,16,17-tetradecahydro-1H-cyclopenta[a]phenanthren-17-yl]-2-methylheptan-3-yl]hydrogen sulfate)]
Squalamine in posterior sclera and choroid ([1]; 30 min, An#105 left eye): BQL
Level of squalamine in aqueous humor [1, 3]: No quantifiable levels
Level of squalamine in vitreous humor [1, 3]: No quantifiable levels
concentration at 15 min ([1]; An#101 left eye, read-out: Squalamine in posterior sclera and choroid): 101 ng/g
concentration at 15 min ([1]; An#101 right eye, read-out: Squalamine in posterior sclera and choroid): 26.6 ng/g
concentration at 15 min ([1]; An#102 left eye, read-out: Squalamine in posterior sclera and choroid): 44.2 ng/g
concentration at 15 min ([1]; An#102 right eye, read-out: Squalamine in posterior sclera and choroid): 145 ng/g
concentration at 15 min ([1]; An#103 left eye, read-out: Squalamine in posterior sclera and choroid): 195 ng/g
concentration at 15 min ([1]; An#103 right eye, read-out: Squalamine in posterior sclera and choroid): 31.7 ng/g
concentration at 15 min [1, 4]: 90.6 ng/g
concentration at 30 min ([1]; 30 min, An#104 left eye, read-out: Squalamine in posterior sclera and choroid): 54.4 ng/g
concentration at 30 min ([1]; 30 min, An#104 right eye, read-out: Squalamine in posterior sclera and choroid): 121 ng/g
concentration at 30 min ([1]; 30 min, An#105 right eye, read-out: Squalamine in posterior sclera and choroid): 78.9 ng/g
concentration at 30 min ([1]; 30 min, An#106 left eye, read-out: Squalamine in posterior sclera and choroid): 96.7 ng/g
concentration at 30 min ([1]; 30 min, An#106 right eye, read-out: Squalamine in posterior sclera and choroid): 94.1 ng/g
concentration at 30 min ([1]; 30 min, mean of eyes, read-out: Squalamine in posterior sclera and choroid, Mean): 89 ng/g
concentration at 3 h ([1]; An#107 left eye, read-out: Squalamine in posterior sclera and choroid): 23.9 ng/g
concentration at 3 h ([1]; An#107 right eye, read-out: Squalamine in posterior sclera and choroid): 149 ng/g
concentration at 3 h ([1]; An#108 left eye, read-out: Squalamine in posterior sclera and choroid): 26 ng/g
concentration at 3 h ([1]; An#108 right eye, read-out: Squalamine in posterior sclera and choroid): 34.6 ng/g
concentration at 3 h ([1]; An#109 left eye, read-out: Squalamine in posterior sclera and choroid): 71.8 ng/g
concentration at 3 h ([1]; An#109 right eye, read-out: Squalamine in posterior sclera and choroid): 51.1 ng/g
concentration at 3 h [1, 4]: 59.4 ng/g
HUVEC tube formation on Matrigel [2]: disrupts tube formation
visual acuity (AMD; IV infusion, after the first four to five weeks of administration): good gains in visual acuity
plasma half-life (AMD; human subjects, 40 mg dose, intravenous infusion): short
adverse reactions of intravenous dosing (AMD; intravenous dosing, human): local infusion-site reactions
